Test results: publication PMC7160832, “Phosphonium Ionic Liquid-Infused Poly(vinyl chloride) Surfaces Possessing Potent Antifouling Properties” (ACS Omega, 2020)

Assays:
[1] = system: S. aureus (ATCC 6538); test: MIC and MBC by standardized broth dilution; format: cell-based, Staphylococcus aureus; settings: for MBC: 99.9% killing; for MBC / MIC: >1000 = beyond tested concentration range; for MIC: 24 h, MHB
Protocol: (§1) S. aureus (ATCC 6538) and P. aeruginosa (PA01) were maintained on cryopreservative beads (Microbank) at −80 °C and cultivated in 100 mL of MHB at 37 °C when needed. Overnight broth was centrifuged (3000 rpm, 12 min) and resuspended in PBS to achieve a final inoculum density of approximately 1 × 10^8 cfu mL^–1.
(§2) The microbiological performance of the ionic liquids was assessed using MHB inoculated with S. aureus or P. aeruginosa according to a standardized broth dilution method.[25] A stock solution of 0.2% w/v of ionic liquid was freshly prepared in sterile MHB by stirring at 37 °C until dissolved and then filtered using a sterile 0.22 μm membrane. Serial twofold dilutions were prepared to provide a concentration range of […] to 0.1% w/v. Inoculum was diluted in MHB to produce a final inoculum density of 1 × 10^6 cfu mL^–1, verified by viable count. The inoculum (100 μL) was added to an equal volume of ionic liquid and incubated for 24 h (37 °C, 100 rpm). Positive (100 μL ofMHB/100 μL of inoculum) and negative controls (200 μL of MHB) were included in each assay. A minimum of five replicates of each dilution and controls were included.
(§3) Determination of the MIC was taken as the lowest concentration that produced no visible growth after 24 h incubation.

[2] = system: P. aeruginosa (PA01); test: MIC and MBC by standardized broth dilution; format: cell-based, Pseudomonas aeruginosa; settings: for MBC: 99.9% killing; for MBC / MIC: >1000 = beyond tested concentration range; for MIC: 24 h, MHB
Protocol: as §1, §2, §3

[3] = system: equine erythrocytes; test: Hemolysis assay of PILs; format: cell-based; settings: for hemolysis: 1 h, 37 °C; for hemolytic activity (in words): concentrations up to 25 μg mL^–1, equine erythrocytes
Protocol: To assess the potential of phosphonium-AOT ionic liquids to illicit a hemolytic effect, ionic liquids were assessed for the ability to induce hemolysis of equine erythrocytes according to a previous method.[51] Briefly, 10 mL of fresh defribrinated equine blood was rinsed three times with an equal volume of PBS by centrifugation at 900g for 15 min. Erythrocytes were resuspended in PBS to a concentration of 4% (v/v). Erythrocyte suspension (100 μL) was added to each well of a 96-well microtiter plate and exposed to varying concentrations of ionic liquid for 1 h at 37 °C in an orbital incubator. Exposed solutions were subsequently centrifuged at 1000g for 15 min, and 100 μL was transferred to a fresh 96-well microtiter plate and spectrophotometrically read at 414 nm to determine hemoglobin release. Hexadecyltrimethylammonium bromide (8 mM) was used as a positive control (100% hemolysis) and PBS as a negative control (0% hemolysis). Samples were run in quadruplicate, and percentage hemolysis was calculated as follows [drawing 1]

[4] = parameters: method as in earlier work; settings: ref 39 (Kruszewska et al.); cited from earlier work
[5] = parameters: method as in PMID 29518336; settings: cited from earlier work
[6] = system: P. aeruginosa; parameters: method as in PMID 17655912; settings: 10^6 cfu mL^–1 P. aeruginosa inoculum, within 6 h, concentrations as low as 0.08 mg/L; cited from earlier work
[7] = 5 μg mL^–1, equine erythrocytes
[8] = 25 μg mL^–1, equine erythrocytes

Compound | MBC [1] [μg mL^–1] | MIC [1] [μg mL^–1] | MBC ([2]; P. aeruginosa) [μg mL^–1] | MIC ([2]; P. aeruginosa) [μg mL^–1] | other results
CCCCC(CC)COC(=O)CC(C(=O)OCC(CC)CCCC)S(=O)(=O)[O-].CCCCCCCCCCCCCC[P+](CCCCCCCC)(CCCCCCCC)CCCCCCCC [[P888 14][AOT], trioctyl(tetradecyl)phosphonium docusate] | 7.81 | 3.91 | 1000 | 250 | MIC potency relative to the other [AOT]-containing ionic liquids [1]: 16–128 fold; rise of MBC against P. aeruginosa relative to S. aureus [2]: 128 fold; rise of MIC against P. aeruginosa relative to S. aureus [2]: 64 fold; hemolysis [3, 7]: < 10%; hemolysis [3, 8]: 102.3%
CCCCC(CC)COC(=O)CC(C(=O)OCC(CC)CCCC)S(=O)(=O)[O-].CCCCCCCCCCCCCCCCCC[P+](C)(CCCCCCCCCCCCCCCCCC)CCCCCCCCCCCCCCCCCC [[P181818 1][AOT], trioctadecyl(methyl)phosphonium docusate] | 500 | 250 | >1000 | >1000 | hemolytic activity (in words) [3]: not hemolytic
CCCCC(CC)COC(=O)CC(C(=O)OCC(CC)CCCC)S(=O)(=O)O (stereo not shown) [sodium docusate] |  |  |  |  | MIC [4]: 3000 μg mL^–1
CCCCCCCCCCCCCC[P+](CCCCCC)(CCCCCC)CCCCCC.O=S(=O)([N-]S(=O)(=O)C(F)(F)F)C(F)(F)F [[P666 14][Tf2N], Trihexyl(tetradecyl)phosphonium bis(trifluoromethylsulfonyl)imide] | >1000 | >1000 | >1000 | >1000 | antibacterial activity / growth inhibition (in words) ([1]; within the tested concentration range): no antibacterial activity; antibacterial activity / growth inhibition (in words) ([2]; P. aeruginosa, within the tested concentration range): no antimicrobial activity; aqueous solubility [5]: 0.26 mM
CCCCC(CC)COC(=O)CC(C(=O)OCC(CC)CCCC)S(=O)(=O)[O-].CCCC[P+](CCO)(CCCC)CCCC (stereo not shown) [[P444 2OH][AOT], tributyl(hydroxyethyl)phosphonium docusate] | 250 | 62.5 | >1000 | >1000 | hemolysis [3, 7]: < 10%; hemolysis [3, 8]: 99.39%
Silver ions |  |  |  |  | eradication of inoculum [6]: ≤ 99.999%
CCCCC(CC)COC(=O)CC(C(=O)OCC(CC)CCCC)S(=O)(=O)[O-].CCCCCCCCCCCCCC[P+](CCCCCC)(CCCCCC)CCCCCC [[P666 14][AOT], Trihexyl(tetradecyl)phosphonium docusate] | 1000 | 500 | >1000 | >1000 | hemolytic activity (in words) [3]: not hemolytic
